Results: the CheMixHub ionic liquid set
± gives the uncertainty stated by the source.

Assay: xn = mol fraction of the nth substance listed

OCCCCCO + C[N+](C)(C)CCO.O=S(=O)([N-]S(=O)(=O)C(F)(F)F)C(F)(F)F
Details	viscosity [mPa·s]
333.15 K, 101 kPa, x1 = 1	20.3 ± 1.2

CCCCCC[n+]1ccn(C)c1.[Br-] + C[NH2+]CCC=C1c2ccccc2CCc2ccccc21.[Cl-] + O
viscosity [mPa·s], 100 kPa
Details	288.15 K	298.15 K	308.15 K	318.15 K
x2 = 0, x1 = 0.0001802	1.159 ± 0.044	0.926 ± 0.043	0.762 ± 0.043	0.645 ± 0.042
x2 = 0, x1 = 0.0007203	1.165 ± 0.044	0.934 ± 0.043	0.77 ± 0.043	0.643 ± 0.042
x2 = 0, x1 = 0.00126	1.171 ± 0.044	0.942 ± 0.043	0.776 ± 0.043	0.66 ± 0.043

CCCCCC[n+]1ccn(C)c1.O=S(=O)([N-]S(=O)(=O)C(F)(F)F)C(F)(F)F + ClC(Cl)Cl
electrical conductivity [S/m], 101 kPa
Details	x1 = 0.196	x1 = 0.335	x1 = 0.956	x1 = 0.97	x2 = 0.006
288.5 K	0.462	–	–	0.146	–
318.5 K	–	0.845	0.469	–	0.459

CCCCCC[n+]1ccn(C)c1.[Br-] + NC(N)=O + O
298.15 K, 100 kPa
Details	viscosity [mPa·s]
x2 = 0, x3 = 0.9008	6.89 ± 0.35
x2 = 0, x3 = 0.9487	2.88 ± 0.15
x2 = 0.008076, x3 = 0.8927	6.77 ± 0.34
x2 = 0.008492, x3 = 0.9402	2.97 ± 0.15
x2 = 0.01609, x3 = 0.8847	6.7 ± 0.34
x2 = 0.01695, x3 = 0.9318	2.98 ± 0.15
x2 = 0.02496, x3 = 0.9237	2.95 ± 0.15
x2 = 0.02678, x3 = 0.9219	2.96 ± 0.15
x2 = 0.03154, x3 = 0.8693	6.78 ± 0.34
x2 = 0.03322, x3 = 0.9155	2.98 ± 0.15
x2 = 0.03874, x3 = 0.8621	6.76 ± 0.34
x2 = 0.0408, x3 = 0.9079	3.02 ± 0.16

CCCCCCCCOS(=O)(=O)[O-].CC[n+]1ccn(C)c1 + O
101 kPa, frequency 0.0005 MHz
Details	electrical conductivity [S/m]
263.15 K, x2 = 0.8103	0.26 ± 0.016
288.15 K, x2 = 0.7822	0.678 ± 0.041
298.15 K, x2 = 0.8236	1.14 ± 0.069
303.15 K, x2 = 0.8236	1.32 ± 0.08
303.15 K, x2 = 0.8384	1.52 ± 0.092
313.15 K, x2 = 0.8103	1.65 ± 0.099
323.15 K, x2 = 0.8236	2.2 ± 0.13
333.15 K, x2 = 0.7822	2.4 ± 0.14
333.15 K, x2 = 0.8236	2.77 ± 0.17
343.15 K, x2 = 0.7822	2.9 ± 0.17

101 kPa
Details	viscosity [mPa·s]
298.15 K, x2 = 0.8236	63.5 ± 1.4
303.15 K, x2 = 0.8236	48.9 ± 1.1
303.15 K, x2 = 0.8384	46 ± 1
313.15 K, x2 = 0.8103	32.07 ± 0.71
333.15 K, x2 = 0.7822	15.7 ± 0.35
343.15 K, x2 = 0.7822	11.31 ± 0.25

CCCC[n+]1ccn(C)c1.COS(=O)(=O)[O-] + O
viscosity [mPa·s], 101 kPa
Details	283.15 K	293.15 K	303.15 K	313.15 K	323.15 K	333.15 K	343.15 K
x2 = 0.0004	527 ± 18	273.8 ± 6.9	153.5 ± 2.9	93.1 ± 1.4	60.24 ± 0.76	41.07 ± 0.52	29.3 ± 0.37
x2 = 0.0999	432 ± 13	229.3 ± 5.2	132.8 ± 2.2	82.6 ± 1.1	54.53 ± 0.63	37.8 ± 0.45	27.72 ± 0.33
x2 = 0.194	356.2 ± 9.9	193.6 ± 3.9	114.5 ± 1.7	72.55 ± 0.86	48.65 ± 0.54	34.25 ± 0.38	25.14 ± 0.28
x2 = 0.3979	182.1 ± 3.4	104.3 ± 1.4	64.51 ± 0.65	42.47 ± 0.42	29.48 ± 0.29	21.44 ± 0.21	16.88 ± 0.17
x2 = 0.6025	63.13 ± 0.6	38.93 ± 0.35	25.65 ± 0.23	17.84 ± 0.16	12.97 ± 0.12	9.806 ± 0.087	8.289 ± 0.073
x2 = 0.8005	19.72 ± 0.17	13.01 ± 0.11	9.056 ± 0.075	6.609 ± 0.055	5.006 ± 0.042	3.929 ± 0.033	3.175 ± 0.027
x2 = 0.8993	8.179 ± 0.067	5.646 ± 0.046	4.113 ± 0.033	3.137 ± 0.026	2.483 ± 0.021	2.029 ± 0.017	1.707 ± 0.015

CCCC[n+]1ccn(C)c1.N#C[C-](C#N)C#N + O
viscosity [mPa·s], 101 kPa
Details	278.15 K	288.15 K	298.15 K	308.15 K	318.15 K	328.15 K	333.15 K	338.15 K	348.15 K	358.15 K
x2 = 0	76.6 ± 2	43.55 ± 0.74	27.32 ± 0.47	18.45 ± 0.32	13.21 ± 0.23	9.91 ± 0.18	–	7.71 ± 0.14	6.18 ± 0.11	5.08 ± 0.095
x2 = 0.01382	–	–	–	–	–	9.9 ± 0.13	8.72 ± 0.11	–	6.245 ± 0.079	–
x2 = 0.0458	67.8 ± 1.3	39.3 ± 0.66	25.05 ± 0.42	17.19 ± 0.29	12.48 ± 0.21	9.46 ± 0.16	–	7.43 ± 0.13	6.01 ± 0.11	4.966 ± 0.092
x2 = 0.1008	–	31.74 ± 0.52	20.8 ± 0.35	14.54 ± 0.24	10.68 ± 0.18	8.18 ± 0.14	–	6.47 ± 0.12	5.261 ± 0.095	4.375 ± 0.081
x2 = 0.175	47.79 ± 0.76	28.85 ± 0.47	19.03 ± 0.31	13.37 ± 0.22	9.89 ± 0.17	7.62 ± 0.13	–	6.06 ± 0.11	4.944 ± 0.088	4.125 ± 0.076
x2 = 0.2116	44.3 ± 0.7	26.98 ± 0.43	17.9 ± 0.29	12.67 ± 0.21	9.43 ± 0.16	7.3 ± 0.12	–	5.83 ± 0.1	4.783 ± 0.085	4.001 ± 0.073
x2 = 0.2885	37.68 ± 0.58	23.28 ± 0.36	15.62 ± 0.25	11.15 ± 0.18	8.36 ± 0.14	6.51 ± 0.11	–	5.232 ± 0.09	4.309 ± 0.076	3.618 ± 0.066
x2 = 0.4273	28.9 ± 0.43	18.24 ± 0.28	12.43 ± 0.19	8.99 ± 0.14	6.81 ± 0.11	5.351 ± 0.089	–	4.329 ± 0.074	3.586 ± 0.064	3.028 ± 0.056
x2 = 0.5034	25.05 ± 0.37	15.99 ± 0.24	11 ± 0.17	8.01 ± 0.13	6.106 ± 0.099	4.82 ± 0.08	–	3.916 ± 0.068	3.273 ± 0.058	2.748 ± 0.052
x2 = 0.5607	21.78 ± 0.32	14.03 ± 0.21	9.71 ± 0.15	7.1 ± 0.11	5.428 ± 0.088	4.295 ± 0.072	–	3.496 ± 0.061	2.912 ± 0.053	2.472 ± 0.047
